Assay results as given in patent US6410054B1, “Immediate release eplerenone compositions” (G. D. Searle & Co., priority 1998, dated 2002).

Experiments:
[1] = Single dose study: plasma pharmacokinetics of eplerenone, open lactone ring form, spironolactone; conditions: open ring lactone in plasma
Procedure: The pharmacokinetics, safety and antialdosterone activity of single 10, 50, 100, 300 and 1000 mg oral doses of eplerenone were evaluated in a single-center, randomized, double-blind, placebo-controlled study.
The study employed seven parallel dose groups of eight healthy male humans.
The eplerenone capsules administered corresponded to the capsules (or combinations of the capsules) disclosed in Examples 4, 5, 7 and 8 above. The placebo was a conventional capsule containing lactose. […] The fludrocortisone used in the study consisted of commercially available fludrocortisone tablets (Florinef®, Squibb BV).
The subjects, who underwent a ten hour food fast prior to administration of the dose, received a single oral dose of one of the study medications together with about 180 mL of water at 0800 hours. […] Each dose of fludrocortisone was administered with 150 mL of water except for the 1.0 mg dose which was administered with 200 mL of water.
The plasma samples collected from subjects dosed with eplerenone were assayed for concentrations of eplerenone and the open lactone ring form of eplerenone. […] A subset of plasma samples was also assayed for testosterone levels. The urine collected was analyzed to determine concentrations and amounts of eplerenone and the open lactone ring form of eplerenone, the amount of sodium and potassium excreted, and the urinary log10 (sodium/potassium) ratio.

[2] = ADME study of [14C]eplerenone oral solution: excretion in urine, feces, breath; type: in vivo, humans; conditions: 100 mg [14C]eplerenone oral solution, mean
Procedure: (§1) An open-label, single dose study was employed to evaluate the absorption, distribution, metabolism and elimination profile of a single 100 mg dose of an oral solution of eplerenone.
(§2) The study employed eight healthy male humans. Each subject received a single 100 mg oral dose of a solution of [^14C]eplerenone (specific activity 0.75 μCi/mg). Plasma, saliva, breath, urine and fecal samples were collected at predetermined intervals and analyzed for sample radioactivity and the concentration of eplerenone and its open lactone ring form. Safety was determined on the basis of laboratory tests, vital signs, and the occurrence and types of adverse events.
(§3) The subjects, who underwent an overnight food fast prior to administration of the dose, received at 0800 hours a single 100 mg oral dose of an aqueous oral solution of radiolabeled eplerenone reconstituted in 80 mL of an apple juice/hydroxypropyl-β-cyclodextrin mixture. The subjects swallowed about 200 mL of water one, two and three hours post dosing.
(§4) Blood samples were collected at −0.5 (predose), 0.5, 1, 1.5, 2, 2.5, 3, 4, 6, 8, 12, 16, 24, 36, 48, 72 and 96 hours post dose. […] Individual fecal samples were collected beginning immediately after dosing and continuing through 0800 hours on day 8. In addition, one predose fecal sample was provided. Saliva samples were taken at 0.5 hour predose and at 0.5, 1, 2, 4, 6, 12, and 24 hours postdose. Breath samples were taken at 0.5 hour predose and at 1, 2, 3, 4, 6, 8, 12, 24, 36, 48 and 72 hours postdose.

[3] = ADME study of [14C]eplerenone oral solution: plasma, whole blood, saliva pharmacokinetics; type: in vivo, humans; conditions: for Plasma Concentration: 100 mg oral solution of [14C]eplerenone
Procedure: as §1, §2, §3, §4

[4] = plasma, 100 mg eplerenone oral solution, single dose

SMILES: COC(=O)C1CC2=CC(=O)CCC2(C)C23OC2CC2(C)C(CCC2(O)CCC(=O)O)C13 (stereo not drawn) [Open Ring Lactone]
- AUC(0-96) ([1]; 50 mg Epl. single oral dose): 142.8 (ng/mL) hr
- Mean Residence Time ([1]; 50 mg Epl. single oral dose): 2.8 h
- Oral Clearance ([1]; 50 mg Epl. single oral dose): 491.3 L/h
- T1/2 ([1]; 50 mg Epl. single oral dose): 2.7 h
- Tmax ([1]; 50 mg Epl. single oral dose): 1.0 h
- AUC(0-96) ([1]; 100 mg Epl. single oral dose): 246.8 (ng/mL) hr
- Mean Residence Time ([1]; 100 mg Epl. single oral dose): 3.3 h
- Oral Clearance ([1]; 100 mg Epl. single oral dose): 445.2 L/h
- T1/2 ([1]; 100 mg Epl. single oral dose): 2.7 h
- Tmax ([1]; 100 mg Epl. single oral dose): 1.1 h
- AUC(0-96) ([1]; 300 mg Epl. single oral dose): 1065.1 (ng/mL) hr
- Mean Residence Time ([1]; 300 mg Epl. single oral dose): 4.2 h
- Oral Clearance ([1]; 300 mg Epl. single oral dose): 299.8 L/h
- T1/2 ([1]; 300 mg Epl. single oral dose): 2.8 h
- Tmax ([1]; 300 mg Epl. single oral dose): 1.3 h
- AUC(0-96) ([1]; 1000 mg Epl. single oral dose): 3483.5 (ng/mL) hr
- Mean Residence Time ([1]; 1000 mg Epl. single oral dose): 5.7 h
- Oral Clearance ([1]; 1000 mg Epl. single oral dose): 330.7 L/h
- T1/2 ([1]; 1000 mg Epl. single oral dose): 2.6 h
- Tmax ([1]; 1000 mg Epl. single oral dose): 2.5 h
- dose excreted in feces as the named form [2]: 2.46%
- dose excreted in urine as the named form [2]: 4.98%
- Plasma Concentration ([3]; 0.5 hours after dosing): 63.2 ng/mL
- Plasma Concentration ([3]; 1.0 hours after dosing): 78.0 ng/mL
- Plasma Concentration ([3]; 1.5 hours after dosing): 70.8 ng/mL
- Plasma Concentration ([3]; 2.0 hours after dosing): 59.9 ng/mL
- Plasma Concentration ([3]; 2.5 hours after dosing): 51.0 ng/mL
- Plasma Concentration ([3]; 3.0 hours after dosing): 46.9 ng/mL
- Plasma Concentration ([3]; 4.0 hours after dosing): 41.9 ng/mL
- Plasma Concentration ([3]; 6.0 hours after dosing): 23.0 ng/mL
- Plasma Concentration ([3]; 8.0 hours after dosing): 13.0 ng/mL
- Plasma Concentration ([3]; 48.0 hours after dosing): 0 ng/mL
- Plasma Concentration ([3]; 72.0 hours after dosing): 0 ng/mL
- Plasma Concentration ([3]; −0.5 hours after dosing): 0 ng/mL
- AUC(0-96) [3, 4]: 352.2 (ng/mL) hr
- Mean Residence Time [3, 4]: 3.4 h
- Oral Clearance [3, 4]: 306.3 L/h
- T1/2 [3, 4]: 3.1 h
- Tmax [3, 4]: 1.1 h
